Like-named read-outs stand apart in the source and are kept apart here.
How the values were obtained:
[1] = test system: acutely dissociated and purified rat OPCs; experiment: Acute OL differentiation assay (MBP expression/cell, immunofluorescent image quantification); format: cell-based; conditions: sheet "All OLga data"; for activation at 0.08 µM / activation at 2 µM / activation at 10 µM / activation at 0.4 µM: Rattus norvegicus
In short: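 Oligodendrocyte precursor cells were enriched from P6-P7 Sprague–Dawley rat brains by immunopanning (RAN-2 and GalC depletion, O4 selection), plated at 5000 cells/well in serum-free, mitogen-free differentiation media on PDL/laminin 96-well view plates, centrifuged at 200×g, and pre-incubated 1–2 h before test compounds were added in quadruplicate. On DIV4, cells were fixed, stained for MBP and DAPI, imaged automatically, and MBP expression per cell was quantified.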

expanded OPCs = experiment: cells; conditions: for viability at 0.1 µM / viability at 1 µM / viability at 10 µM: Rattus norvegicus, 72 h
In short: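 Expanded OPCs seeded at 10,000 cells/well in differentiation media, then exposed to NCC library compounds at 10, 1 and 0.1 µM (quadruplicate, 0.1% DMSO) for three days. Viability read as alamarBlue fluorescence (560/590 nm) after 4 h at 37 °C; tunicamycin 5 ng/ml served as toxicity control.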

[2] = read-out: 0.1 µM (% DMSO), alamarBlue viability, NCC library compound at 0.1 µM, sheet "All Tox data"
[3] = read-out: 1 µM (% DMSO), alamarBlue viability, NCC library compound at 1 µM, sheet "All Tox data"
[4] = read-out: 10 µM (% DMSO), alamarBlue viability, NCC library compound at 10 µM, sheet "All Tox data"
[5] = 2 uM test compound, relative to quetiapine, read-out: OL differentiation, 2 uM (% Quet)
[6] = 10 uM test compound, relative to quetiapine, read-out: OL differentiation, 10 uM (% Quet)
[7] = read-out: 0.1 µM (% DMSO), alamarBlue viability of expanded OPCs, compound at 0.1 µM, sheet All Tox data
[8] = read-out: 1 µM (% DMSO), alamarBlue viability of expanded OPCs, compound at 1 µM, sheet All Tox data
[9] = read-out: 10 µM (% DMSO), alamarBlue viability of expanded OPCs, compound at 10 µM, sheet All Tox data
[10] = test compound at 2 uM, MBP expression relative to quetiapine, NCC library screen, read-out: 2 uM (% Quet)
[11] = test compound at 10 uM, MBP expression relative to quetiapine, NCC library screen, read-out: 10 uM (% Quet)
[12] = alamarBlue viability of expanded OPCs, compound at 0.1 µM, relative to DMSO control
[13] = alamarBlue viability of expanded OPCs, compound at 1 µM, relative to DMSO control
[14] = alamarBlue viability of expanded OPCs, compound at 10 µM, relative to DMSO control
[15] = test compound at 2 uM, NCC library screen, relative to quetiapine, read-out: 2 uM (% Quet)
[16] = test compound at 10 uM, NCC library screen, relative to quetiapine, read-out: 10 uM (% Quet)
[17] = 0.4 uM test compound, relative to quetiapine, read-out: OL differentiation, 0.4 uM (% Quet)

CC(C)C[C@H](NC(=O)[C@@H](COC(C)(C)C)NC(=O)[C@H](Cc1ccc(O)cc1)NC(=O)[C@H](CO)NC(=O)[C@H](Cc1c[nH]c2ccccc12)NC(=O)[C@H](Cc1cnc[nH]1)NC(=O)[C@@H]1CCC(=O)N1)C(=O)N[C@@H](CCCNC(=N)N)C(=O)N1CCC[C@H]1C(=O)NNC(N)=O [Goserelin]
2 uM (% Quet) ([1]; test compound at 2 uM, NCC library screen, relative to quetiapine): -6.3 % Quet | 10 uM (% Quet) ([1]; test compound at 10 uM, NCC library screen, relative to quetiapine): 5.4 % Quet | 0.1 µM (% DMSO) (expanded OPCs; alamarBlue viability, NCC library compound at 0.1 µM, sheet "All Tox data"): 95.7 % DMSO | 1 µM (% DMSO) (expanded OPCs; alamarBlue viability, NCC library compound at 1 µM, sheet "All Tox data"): 94.5 % DMSO | 10 µM (% DMSO) (expanded OPCs; alamarBlue viability, NCC library compound at 10 µM, sheet "All Tox data"): 97.2 % DMSO

CCCCc1oc2ccccc2c1C(=O)c1cc(I)c(OCCN(CC)CC)c(I)c1 [Amiodarone]
activation at 0.08 µM ([1]; test compound at 0.08 uM, NCC library screen, relative to quetiapine, read-out: 0.08 uM (% Quet)): 44.2% | viability at 0.1 µM (expanded OPCs; [2]): 74.9% | viability at 1 µM (expanded OPCs; [3]): 8.8% | viability at 10 µM (expanded OPCs; [4]): 8.6%

Cn1nnc2c(C(N)=O)ncn2c1=O [Temozolomide]
activation at 2 µM [1, 5]: -10.2% | activation at 10 µM [1, 6]: -8.5% | viability at 0.1 µM (expanded OPCs; [7]): 105% | viability at 1 µM (expanded OPCs; [8]): 94.7% | viability at 10 µM (expanded OPCs; [9]): 100%

CC(=O)N1CCN(c2ccc(OCC3COC(Cn4ccnc4)(c4ccc(Cl)cc4Cl)O3)cc2)CC1 (stereo not shown) [Ketoconazole]
activation at 2 µM [1, 5]: 16.5% | activation at 10 µM [1, 6]: -67.7% | viability at 0.1 µM (expanded OPCs; [7]): 98.1% | viability at 1 µM (expanded OPCs; [8]): 126% | viability at 10 µM (expanded OPCs; [9]): 109%

CC(=O)/N=c1/sc(S(N)(=O)=O)nn1C [Methazolamide]
activation at 2 µM [1, 10]: -29% | activation at 10 µM [1, 11]: -40% | 0.1 µM (% DMSO) (expanded OPCs; [12]): 90.9 % DMSO | 1 µM (% DMSO) (expanded OPCs; [13]): 92.5 % DMSO | 10 µM (% DMSO) (expanded OPCs; [14]): 88.3 % DMSO

Oc1ccc(C2CNCCc3c2cc(O)c(O)c3Cl)cc1 (stereo not shown) [Fenoldopam]
activation at 2 µM [1, 5]: -32.3% | activation at 10 µM [1, 6]: -79.8% | viability at 0.1 µM (expanded OPCs; [7]): 106% | viability at 1 µM (expanded OPCs; [8]): 97.4% | viability at 10 µM (expanded OPCs; [9]): 75.9%

OCc1cccnc1 [Nicotinyl Alcohol]
activation at 2 µM [1, 15]: -9.3% | activation at 10 µM [1, 16]: -3.3% | viability at 0.1 µM (expanded OPCs; [2]): 88.5% | viability at 1 µM (expanded OPCs; [3]): 90.1% | viability at 10 µM (expanded OPCs; [4]): 89.3%

CS(=O)(=O)OCCCCOS(C)(=O)=O [Busulfan]
activation at 2 µM [1, 15]: 2.3% | activation at 10 µM [1, 16]: -6.2% | 0.1 µM (% DMSO) (expanded OPCs; [12]): 93.9 % DMSO | 1 µM (% DMSO) (expanded OPCs; [13]): 91.8 % DMSO | 10 µM (% DMSO) (expanded OPCs; [14]): 79.1 % DMSO

CC(C)[C@H](N)C(=O)OCCOCn1cnc2c(=O)[nH]c(N)nc21 [Valaciclovir]
activation at 2 µM [1, 5]: -1.4% | activation at 10 µM [1, 6]: -8.7% | viability at 0.1 µM (expanded OPCs; [7]): 91.4% | viability at 1 µM (expanded OPCs; [8]): 98% | viability at 10 µM (expanded OPCs; [9]): 102%

CN(C)CC/C=C1/c2ccccc2COc2ccc(CC(=O)O)cc21 [Olopatadine]
activation at 2 µM [1, 15]: -29.3% | activation at 10 µM [1, 16]: -29% | viability at 0.1 µM (expanded OPCs; [2]): 88.7% | viability at 1 µM (expanded OPCs; [3]): 89.3% | viability at 10 µM (expanded OPCs; [4]): 77.6%

CN1C(=O)CC[C@H]1c1cccnc1 [Cotinine]
activation at 2 µM [1, 5]: -8.8% | activation at 10 µM [1, 6]: 21.8% | viability at 0.1 µM (expanded OPCs; [7]): 88.9% | viability at 1 µM (expanded OPCs; [8]): 92% | viability at 10 µM (expanded OPCs; [9]): 98.7%

Nc1nc(N)nc(-c2cc(Cl)ccc2Cl)n1 [Irsogladine]
activation at 2 µM [1, 5]: 20.6% | activation at 10 µM [1, 6]: 6.1% | viability at 0.1 µM (expanded OPCs; [7]): 92.2% | viability at 1 µM (expanded OPCs; [8]): 92.7% | viability at 10 µM (expanded OPCs; [9]): 94.8%

CC(=O)OCC(=O)[C@@]12OC(C)(C)O[C@@H]1C[C@H]1[C@@H]3C[C@H](F)C4=CC(=O)C=C[C@]4(C)[C@@]3(F)[C@@H](O)C[C@@]12C [Fluocinonide]
activation at 2 µM [1, 10]: 12.4% | activation at 10 µM [1, 11]: -24.4% | 0.1 µM (% DMSO) (expanded OPCs; [12]): 108.3 % DMSO | 1 µM (% DMSO) (expanded OPCs; [13]): 102.9 % DMSO | 10 µM (% DMSO) (expanded OPCs; [14]): 80.4 % DMSO

CN[C@@H]1[C@H](O)[C@H](NC)[C@H]2O[C@@]3(O)C(=O)C[C@@H](C)O[C@H]3O[C@@H]2[C@H]1O [Spectinomycin]
activation at 2 µM [1, 15]: 7.7% | activation at 10 µM [1, 16]: 18.9% | 0.1 µM (% DMSO) (expanded OPCs; [12]): 91.8 % DMSO | 1 µM (% DMSO) (expanded OPCs; [13]): 87.7 % DMSO | 10 µM (% DMSO) (expanded OPCs; [14]): 83.6 % DMSO

CC(=O)O[C@@]12CO[C@@H]1C[C@H](O)[C@@]1(C)C(=O)[C@H](O)C3=C(C)[C@@H](OC(=O)[C@H](O)[C@@H](NC(=O)OC(C)(C)C)c4ccccc4)C[C@@](O)([C@@H](OC(=O)c4ccccc4)[C@H]21)C3(C)C [Docetaxel]
activation at 0.08 µM ([1]; 0.08 uM test compound, relative to quetiapine, read-out: OL differentiation, 0.08 uM (% Quet)): -94.4% | activation at 0.4 µM [1, 17]: -105% | viability at 0.1 µM (expanded OPCs; [7]): 39.1% | viability at 1 µM (expanded OPCs; [8]): 38.8% | viability at 10 µM (expanded OPCs; [9]): 47.6%

CCS(=O)(=O)CCn1c([N+](=O)[O-])cnc1C [Tinidazole]
activation at 2 µM [1, 15]: -10.8% | activation at 10 µM [1, 16]: 10.4% | viability at 0.1 µM (expanded OPCs; [2]): 91.7% | viability at 1 µM (expanded OPCs; [3]): 95.3% | viability at 10 µM (expanded OPCs; [4]): 97.1%

CCOC(=O)C1=C(C)NC(C)=C(C(=O)OC)C1c1cccc(Cl)c1Cl (stereo not shown) [Felodipine]
activation at 0.08 µM ([1]; test compound at 0.08 uM, MBP expression relative to quetiapine, NCC library screen, read-out: 0.08 uM (% Quet)): -8.1% | activation at 0.4 µM ([1]; test compound at 0.4 uM, MBP expression relative to quetiapine, NCC library screen, read-out: 0.4 uM (% Quet)): 0.8% | 0.1 µM (% DMSO) (expanded OPCs; [12]): 85.5 % DMSO | 1 µM (% DMSO) (expanded OPCs; [13]): 62.8 % DMSO | 10 µM (% DMSO) (expanded OPCs; [14]): 18.3 % DMSO

COc1cc(N)c(Cl)cc1C(=O)NC1CN2CCC1CC2 (stereo not shown) [Zacopride]
activation at 2 µM [1, 5]: 6.8% | activation at 10 µM [1, 6]: 13% | viability at 0.1 µM (expanded OPCs; [7]): 87% | viability at 1 µM (expanded OPCs; [8]): 88.6% | viability at 10 µM (expanded OPCs; [9]): 91.9%

O=C(O)c1cccnc1 [Niacin]
activation at 2 µM [1, 15]: -3.6% | activation at 10 µM [1, 16]: 3.6% | 0.1 µM (% DMSO) (expanded OPCs; [12]): 92.4 % DMSO | 1 µM (% DMSO) (expanded OPCs; [13]): 94.0 % DMSO | 10 µM (% DMSO) (expanded OPCs; [14]): 85.5 % DMSO

COc1ccccc1OCCNCC(O)COc1cccc2[nH]c3ccccc3c12 (stereo not shown) [Carvedilol]
activation at 0.4 µM [1, 17]: -16.1% | activation at 2 µM [1, 5]: -95.9% | viability at 0.1 µM (expanded OPCs; [7]): 101% | viability at 1 µM (expanded OPCs; [8]): 54.5% | viability at 10 µM (expanded OPCs; [9]): 12%

CC(C)(C(=O)c1cccnc1)c1cccnc1 [Metyrapone]
activation at 2 µM [1, 10]: 9.9% | activation at 10 µM [1, 11]: -15% | 0.1 µM (% DMSO) (expanded OPCs; [12]): 90.5 % DMSO | 1 µM (% DMSO) (expanded OPCs; [13]): 94.0 % DMSO | 10 µM (% DMSO) (expanded OPCs; [14]): 93.4 % DMSO

CCCCNc1cc(C(=O)O)cc(S(N)(=O)=O)c1Oc1ccccc1 [Bumetanide]
activation at 2 µM [1, 15]: -20.2% | activation at 10 µM [1, 16]: -11.6% | 0.1 µM (% DMSO) (expanded OPCs; [12]): 92.3 % DMSO | 1 µM (% DMSO) (expanded OPCs; [13]): 97.8 % DMSO | 10 µM (% DMSO) (expanded OPCs; [14]): 92.2 % DMSO

Source: article PMC5011342, “A high throughput drug screening assay to identify compounds that promote oligodendrocyte differentiation using acutely dissociated and purified oligodendrocyte precursor cells” (BMC Research Notes, 2016)
